Five compounds from the supplement of paper PMC10307832 can be followed below.

In one assay the test system is LC-2-ad. Kind of assay: relative viability (nuclei count vs DMSO), 5 days (fraction); higher = more cells survive. The settings on record: first compound 20 µM. The essentials:
(§1)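 Dosing by pin tool came one day after lung cancer cell lines were seeded in 1536-well plates, using either one drug or a fixed anchor-drug dose plus five library-drug doses (not always all listed) in √10 steps. After 5 days, nuclei were counted on 4× images. Relative viability is treated-well nuclei count divided by vehicle-well nuclei count, and values are medians of duplicate plates.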
Turning to `COCC1(CO)C(=O)C2CCN1CC2` (stereo not drawn) [PRIMA-1MET] + Nc1nc2[nH]cc(CCc3ccc(C(=O)N[C@@H](CCC(=O)O)C(=O)O)cc3)c2c(=O)[nH]1 [Pemetrexed] (partner 0.2 µM), the relative viability is 0.259.

Take `COCC1(CO)C(=O)C2CCN1CC2` (stereo not drawn) [PRIMA-1MET] + CC(=O)Nc1cccc(-n2c(=O)n(C3CC3)c(=O)c3c(Nc4ccc(I)cc4F)n(C)c(=O)c(C)c32)c1 [Trametinib] (partner 0.02 µM): the relative viability was 0.905.

`COCC1(CO)C(=O)C2CCN1CC2` (stereo not drawn) [PRIMA-1MET] + Nc1ncn([C@H]2C[C@H](O)[C@@H](CO)O2)c(=O)n1 [Decitabine] (partner 2 µM) displayed a relative viability of 0.776.

Compound `COCC1(CO)C(=O)C2CCN1CC2` (stereo not drawn) [PRIMA-1MET] + O=C(c1cc(Cc2n[nH]c(=O)c3ccccc23)ccc1F)N1CCN(C(=O)C2CC2)CC1 [Olaparib] (partner 8 µM) came in with a relative viability of 0.7.

In the next assay the test system is A-427. The assay is described as above. To be noted: first compound 0.2 µM. The essentials: as §1
For the compound `COCC1(CO)C(=O)C2CCN1CC2` (stereo not drawn) [PRIMA-1MET] + N=C(N)NC(=N)NCCc1ccccc1 [Phenformin] (partner 250 µM), the relative viability worked out at 0.221.

The compound `COCC1(CO)C(=O)C2CCN1CC2` (stereo not drawn) [PRIMA-1MET] + Nc1nc2[nH]cc(CCc3ccc(C(=O)N[C@@H](CCC(=O)O)C(=O)O)cc3)c2c(=O)[nH]1 [Pemetrexed] (partner 0.2 µM) yielded a relative viability of 1.11.

Turning to `COCC1(CO)C(=O)C2CCN1CC2` (stereo not drawn) [PRIMA-1MET] + CC(=O)Nc1cccc(-n2c(=O)n(C3CC3)c(=O)c3c(Nc4ccc(I)cc4F)n(C)c(=O)c(C)c32)c1 [Trametinib] (partner 0.02 µM), the relative viability is 0.533.

For `COCC1(CO)C(=O)C2CCN1CC2` (stereo not drawn) [PRIMA-1MET] + Nc1ncn([C@H]2C[C@H](O)[C@@H](CO)O2)c(=O)n1 [Decitabine] (partner 2 µM), the relative viability was 0.648.

The compound `COCC1(CO)C(=O)C2CCN1CC2` (stereo not drawn) [PRIMA-1MET] + O=C(c1cc(Cc2n[nH]c(=O)c3ccccc23)ccc1F)N1CCN(C(=O)C2CC2)CC1 [Olaparib] (partner 8 µM) came in with a relative viability of 0.918.

Staying with this assay, now noted: first compound 0.6325 µM.
Compound `COCC1(CO)C(=O)C2CCN1CC2` (stereo not drawn) [PRIMA-1MET] + N=C(N)NC(=N)NCCc1ccccc1 [Phenformin] (partner 250 µM) returned a relative viability of 0.294.

`COCC1(CO)C(=O)C2CCN1CC2` (stereo not drawn) [PRIMA-1MET] + Nc1nc2[nH]cc(CCc3ccc(C(=O)N[C@@H](CCC(=O)O)C(=O)O)cc3)c2c(=O)[nH]1 [Pemetrexed] (partner 0.2 µM) had a relative viability of 0.92.

As for `COCC1(CO)C(=O)C2CCN1CC2` (stereo not drawn) [PRIMA-1MET] + CC(=O)Nc1cccc(-n2c(=O)n(C3CC3)c(=O)c3c(Nc4ccc(I)cc4F)n(C)c(=O)c(C)c32)c1 [Trametinib] (partner 0.02 µM), the relative viability was 0.585.

The compound `COCC1(CO)C(=O)C2CCN1CC2` (stereo not drawn) [PRIMA-1MET] + Nc1ncn([C@H]2C[C@H](O)[C@@H](CO)O2)c(=O)n1 [Decitabine] (partner 2 µM) gave a relative viability of 0.532.

Compound `COCC1(CO)C(=O)C2CCN1CC2` (stereo not drawn) [PRIMA-1MET] + O=C(c1cc(Cc2n[nH]c(=O)c3ccccc23)ccc1F)N1CCN(C(=O)C2CC2)CC1 [Olaparib] (partner 8 µM) came in with a relative viability of 0.607.

Staying with this assay, now noted: first compound 2 µM.
For the compound `COCC1(CO)C(=O)C2CCN1CC2` (stereo not drawn) [PRIMA-1MET] + N=C(N)NC(=N)NCCc1ccccc1 [Phenformin] (partner 250 µM), the relative viability was found to be 0.304.

In turn, `COCC1(CO)C(=O)C2CCN1CC2` (stereo not drawn) [PRIMA-1MET] + Nc1nc2[nH]cc(CCc3ccc(C(=O)N[C@@H](CCC(=O)O)C(=O)O)cc3)c2c(=O)[nH]1 [Pemetrexed] (partner 0.2 µM) gave a relative viability of 0.953.

In the case of `COCC1(CO)C(=O)C2CCN1CC2` (stereo not drawn) [PRIMA-1MET] + CC(=O)Nc1cccc(-n2c(=O)n(C3CC3)c(=O)c3c(Nc4ccc(I)cc4F)n(C)c(=O)c(C)c32)c1 [Trametinib] (partner 0.02 µM), the relative viability was found to be 0.786.

Consider `COCC1(CO)C(=O)C2CCN1CC2` (stereo not drawn) [PRIMA-1MET] + Nc1ncn([C@H]2C[C@H](O)[C@@H](CO)O2)c(=O)n1 [Decitabine] (partner 2 µM), for which the relative viability was determined as 0.621.

In turn, `COCC1(CO)C(=O)C2CCN1CC2` (stereo not drawn) [PRIMA-1MET] + O=C(c1cc(Cc2n[nH]c(=O)c3ccccc23)ccc1F)N1CCN(C(=O)C2CC2)CC1 [Olaparib] (partner 8 µM) returned a relative viability of 0.746.

The same assay, now with this note: first compound 6.325 µM.
`COCC1(CO)C(=O)C2CCN1CC2` (stereo not drawn) [PRIMA-1MET] + N=C(N)NC(=N)NCCc1ccccc1 [Phenformin] (partner 250 µM) gave a relative viability of 0.281.

`COCC1(CO)C(=O)C2CCN1CC2` (stereo not drawn) [PRIMA-1MET] + Nc1nc2[nH]cc(CCc3ccc(C(=O)N[C@@H](CCC(=O)O)C(=O)O)cc3)c2c(=O)[nH]1 [Pemetrexed] (partner 0.2 µM) yielded a relative viability of 1.06.

In the case of `COCC1(CO)C(=O)C2CCN1CC2` (stereo not drawn) [PRIMA-1MET] + CC(=O)Nc1cccc(-n2c(=O)n(C3CC3)c(=O)c3c(Nc4ccc(I)cc4F)n(C)c(=O)c(C)c32)c1 [Trametinib] (partner 0.02 µM), the relative viability is 0.692.

`COCC1(CO)C(=O)C2CCN1CC2` (stereo not drawn) [PRIMA-1MET] + Nc1ncn([C@H]2C[C@H](O)[C@@H](CO)O2)c(=O)n1 [Decitabine] (partner 2 µM): the relative viability was 0.568.

In turn, `COCC1(CO)C(=O)C2CCN1CC2` (stereo not drawn) [PRIMA-1MET] + O=C(c1cc(Cc2n[nH]c(=O)c3ccccc23)ccc1F)N1CCN(C(=O)C2CC2)CC1 [Olaparib] (partner 8 µM) yielded a relative viability of 0.765.

Still in this assay, the particulars now being: first compound 20 µM.
Compound `COCC1(CO)C(=O)C2CCN1CC2` (stereo not drawn) [PRIMA-1MET] + N=C(N)NC(=N)NCCc1ccccc1 [Phenformin] (partner 250 µM) gave a relative viability of 0.133.

Compound `COCC1(CO)C(=O)C2CCN1CC2` (stereo not drawn) [PRIMA-1MET] + Nc1nc2[nH]cc(CCc3ccc(C(=O)N[C@@H](CCC(=O)O)C(=O)O)cc3)c2c(=O)[nH]1 [Pemetrexed] (partner 0.2 µM) gave a relative viability of 0.962.

`COCC1(CO)C(=O)C2CCN1CC2` (stereo not drawn) [PRIMA-1MET] + CC(=O)Nc1cccc(-n2c(=O)n(C3CC3)c(=O)c3c(Nc4ccc(I)cc4F)n(C)c(=O)c(C)c32)c1 [Trametinib] (partner 0.02 µM): the relative viability came to 0.785.

Take `COCC1(CO)C(=O)C2CCN1CC2` (stereo not drawn) [PRIMA-1MET] + Nc1ncn([C@H]2C[C@H](O)[C@@H](CO)O2)c(=O)n1 [Decitabine] (partner 2 µM): the relative viability is 0.501.

On to `COCC1(CO)C(=O)C2CCN1CC2` (stereo not drawn) [PRIMA-1MET] + O=C(c1cc(Cc2n[nH]c(=O)c3ccccc23)ccc1F)N1CCN(C(=O)C2CC2)CC1 [Olaparib] (partner 8 µM), for which the relative viability stood at 0.687.

A further assay has as its system LXF-289. The description is as above. To be noted: first compound 0.2 µM. The essentials: as §1
With `COCC1(CO)C(=O)C2CCN1CC2` (stereo not drawn) [PRIMA-1MET] + N=C(N)NC(=N)NCCc1ccccc1 [Phenformin] (partner 250 µM), the relative viability was determined as 0.491.

`COCC1(CO)C(=O)C2CCN1CC2` (stereo not drawn) [PRIMA-1MET] + Nc1nc2[nH]cc(CCc3ccc(C(=O)N[C@@H](CCC(=O)O)C(=O)O)cc3)c2c(=O)[nH]1 [Pemetrexed] (partner 0.2 µM) showed a relative viability of 0.967.

For the compound `COCC1(CO)C(=O)C2CCN1CC2` (stereo not drawn) [PRIMA-1MET] + CC(=O)Nc1cccc(-n2c(=O)n(C3CC3)c(=O)c3c(Nc4ccc(I)cc4F)n(C)c(=O)c(C)c32)c1 [Trametinib] (partner 0.02 µM), the relative viability amounted to 0.582.

As to `COCC1(CO)C(=O)C2CCN1CC2` (stereo not drawn) [PRIMA-1MET] + Nc1ncn([C@H]2C[C@H](O)[C@@H](CO)O2)c(=O)n1 [Decitabine] (partner 2 µM), the relative viability worked out at 0.383.
